Converted amounts (≈) assume the structure as drawn. Read-outs that look alike come from different tables or passages of the source.

Holding throughout (type): cell-based
One assay has as its system S. aureus 133. Nature of the assay: MIC determination, broth microdilution (CLSI). (In general: In broth dilution the organism is exposed to a series of concentrations in liquid medium.)
The subject of the next assay is S. pneumoniae 113. The experiment in a line: MIC determination, broth microdilution (CLSI). The following applies: Streptococcus pneumoniae, 113, strain 13; broth microdilution; read-out: MIC strain 13 (S. pneumoniae 113).
For another assay, the system named is C. freundii K21/3034. Nature of the assay: MIC determination, broth microdilution (CLSI). The settings on record: Citrobacter freundii, K21/3034, strain 4.
A further assay has as its system P. aeruginosa PAO1. Nature of the assay: MIC determination, broth microdilution (CLSI). The following applies: Pseudomonas aeruginosa, PAO1, strain 6.
Another assay relates to C. perfringens DSM756. Nature of the assay: microbe, parasite or virus in culture. The settings on record: Clostridium perfringens, DSM756, read-out: MIC strain 16 (C. perfringens DSM756), strain 16; broth microdilution.
The subject of the next assay is K. pneumoniae 60. The experiment in a line: MIC determination, broth microdilution (CLSI). The following applies: Klebsiella pneumoniae, 60, strain 2.
For a further assay, the system named is E. coli ATCC25922. The experiment in a line: MIC determination, broth microdilution (CLSI). The settings on record: Escherichia coli, ATCC25922, strain 1.
In a further assay the test system is E. cloacae 34654. Nature of the assay: MIC determination, broth microdilution (CLSI). The following applies: Enterobacter cloacae, 34654, strain 3.
Another assay relates to A. baumannii ATCC15308. The experiment in a line: MIC determination, broth microdilution (CLSI). The settings on record: Acinetobacter baumannii, ATCC15308, strain 9.
A further assay concerns E. coli J62. The experiment in a line: MIC determination, broth microdilution (CLSI). The settings on record: Escherichia coli, J62, strain 17; broth microdilution; read-out: MIC strain 17 (E. coli J62).
The next assay deals with M. morganii 126/3048. Nature of the assay: MIC determination, broth microdilution (CLSI). The settings on record: Morganella morganii, 126/3048, strain 5.
The next assay has as its system H. influenzae ATCC 49247. Nature of the assay: MIC determination, broth microdilution (CLSI). The settings on record: Haemophilus influenzae, ATCC49247, strain 12; broth microdilution; read-out: MIC strain 12 (H. influenzae ATCC 49247).
The test system of a further assay is Bacteria. The experiment in a line: MIC determination in combination with β-lactamase inhibitors (constant 4 μg/mL).
The subject of a further assay is B. fragilis 6688. The experiment in a line: MIC determination, broth microdilution (CLSI). The following applies: Bacteroides fragilis, 6688, strain 15; broth microdilution; read-out: MIC strain 15 (B. fragilis 6688).
In the next assay the test system is E. coli J62-TEM-3. Nature of the assay: MIC determination, broth microdilution (CLSI). The settings on record: Escherichia coli, J62TEM3, read-out: MIC strain 18 (E. coli J62-TEM-3), strain 18; broth microdilution.
For assay [1], the system named is P. aeruginosa 2297 (AmpC wt). The experiment in a line: MIC determination, broth microdilution (CLSI). The settings on record: Pseudomonas aeruginosa, strain 7.
Where [2] appears, read: Staphylococcus aureus, 133, strain 11, read-out: strain 11 MIC.

As to `CC1(C)[C@H](NC(=O)/C(=N\OCC(Oc2ccc(C(=N)N)cc2)C(=O)O)c2csc(N)n2)C(=O)N1OS(=O)(=O)O` (single isomer, unassigned) [Example 87A], the MIC with S. aureus 133 (setting [2]) is no more than 0.063 µg/mL; with S. pneumoniae 113 it was 0.5 µg/mL (≈ 0.854 µM); in the assay on C. freundii K21/3034, 1 µg/mL (≈ 1.71 µM); in the assay on P. aeruginosa PAO1, 32 µg/mL (≈ 54.6 µM); with C. perfringens DSM756 it was 8 µg/mL (≈ 13.7 µM); in the assay on K. pneumoniae 60 it was 1 µg/mL (≈ 1.71 µM). Besides, the MIC was found to be 1 µg/mL (≈ 1.71 µM) in the assay on E. coli ATCC25922; 1 µg/mL (≈ 1.71 µM) against E. cloacae 34654; 8 µg/mL (≈ 13.7 µM) against A. baumannii ATCC15308; 2 µg/mL (≈ 3.42 µM) with E. coli J62; 0.25 µg/mL (≈ 0.427 µM) in the assay on M. morganii 126/3048; 0.25 µg/mL (≈ 0.427 µM) with H. influenzae ATCC 49247. Further, the MIC in the assay with B. fragilis 6688 and in the assay on E. coli J62-TEM-3 was 32 µg/mL (≈ 54.6 µM) each time. The “MIC strain 19 (E. coli J62-TEM-3 + 4 μg/mL clavulanic acid)” value in the assay on Bacteria amounted to 1 µg/mL. The “MIC strain 20 (E. coli J62-TEM-3 + 4 μg/mL sulbactam)” value in the assay with Bacteria stood at 1 µg/mL. For the same compound, in the assay with Bacteria, the “MIC strain 21 (E. coli J62-TEM-3 + 4 μg/mL tazobactam)” value was found to be 2 µg/mL.
Regarding `C[C@H]1[C@H](NC(=O)/C(=N\OCCOc2ccc(C(=N)N)cc2)c2csc(N)n2)C(=O)N1OS(=O)(=O)O` [Example 47, (2Z)-2-(2-Amino-1,3-thiazol-4-yl)-2-{[2-(4-carbamimidoylphenoxy)ethoxy]imino}-N-[(2S,3S)-2-methyl-4-oxo-1-(sulfooxy)azetidin-3-yl]ethanamide], the MIC with S. aureus 133 (setting [2]) is no more than 0.063 µg/mL; with S. aureus 133 (Staphylococcus aureus, 133, strain 14, broth microdilution, read-out: MIC strain 14 (S. aureus 133)), 1 µg/mL (≈ 1.9 µM); with S. pneumoniae 113, 0.125 µg/mL (≈ 0.237 µM); against C. freundii K21/3034 it was 0.5 µg/mL (≈ 0.948 µM); against P. aeruginosa PAO1 it was 4 µg/mL (≈ 7.58 µM); in the assay on C. perfringens DSM756, 1 µg/mL (≈ 1.9 µM). Further, the MIC is 0.5 µg/mL (≈ 0.948 µM) against K. pneumoniae 60; 0.25 µg/mL (≈ 0.474 µM) in the assay with E. coli ATCC25922; 1 µg/mL (≈ 1.9 µM) in the assay on E. cloacae 34654; 2 µg/mL (≈ 3.79 µM) in the assay with A. baumannii ATCC15308; 0.5 µg/mL (≈ 0.948 µM) in the assay with E. coli J62; 2 µg/mL (≈ 3.79 µM) against M. morganii 126/3048. The MIC with H. influenzae ATCC 49247 was 0.125 µg/mL (≈ 0.237 µM); in assay [1], 2 µg/mL (≈ 3.79 µM); in the assay with B. fragilis 6688 it was 16 µg/mL (≈ 30.3 µM); with E. coli J62-TEM-3 it was 32 µg/mL (≈ 60.7 µM). Moreover, the “MIC strain 19 (E. coli J62-TEM-3 + 4 μg/mL clavulanic acid)” value in the assay on Bacteria is 0.5 µg/mL. For the same compound, in the assay on Bacteria, the “MIC strain 20 (E. coli J62-TEM-3 + 4 μg/mL sulbactam)” value was determined as 0.5 µg/mL. For the same compound, the “MIC strain 21 (E. coli J62-TEM-3 + 4 μg/mL tazobactam)” value in the assay with Bacteria is 0.5 µg/mL.
On to `N=C(N)c1ccc(OCCO/N=C(\C(=O)N[C@@H]2C(=O)N(S(=O)(=O)O)[C@@H]2C(N)=O)c2csc(N)n2)cc1` [Example 66, (2S,3S)-3-{[(2Z)-2-(2-Amino-1,3-thiazol-4-yl)-2-{[2-(4-carbamimidoylphenoxy)-ethoxy]imino}acetyl]amino}-2-carbamoyl-4-oxoazetidine-1-sulfonic acid], for which the MIC in the assay with S. aureus 133 (setting [2]) was found to be 1 µg/mL (≈ 1.85 µM); with S. pneumoniae 113 it was 1 µg/mL (≈ 1.85 µM); in the assay on C. freundii K21/3034, 2 µg/mL (≈ 3.7 µM); in the assay on P. aeruginosa PAO1 it was 32 µg/mL (≈ 59.2 µM); with C. perfringens DSM756, 16 µg/mL (≈ 29.6 µM); against K. pneumoniae 60 it was 1 µg/mL (≈ 1.85 µM). Further, the MIC in the assay on E. coli ATCC25922 turned out to be 2 µg/mL (≈ 3.7 µM); against E. cloacae 34654, 4 µg/mL (≈ 7.4 µM); against A. baumannii ATCC15308, 4 µg/mL (≈ 7.4 µM); in the assay with E. coli J62 it was 2 µg/mL (≈ 3.7 µM); with M. morganii 126/3048, 2 µg/mL (≈ 3.7 µM); in the assay with H. influenzae ATCC 49247, 2 µg/mL (≈ 3.7 µM). Besides, the MIC was 32 µg/mL (≈ 59.2 µM) in assay [1], 16 µg/mL (≈ 29.6 µM) in the assay on B. fragilis 6688 and 4 µg/mL (≈ 7.4 µM) in the assay with E. coli J62-TEM-3. The “MIC strain 19 (E. coli J62-TEM-3 + 4 μg/mL clavulanic acid)” value with Bacteria stood at 2 µg/mL. Besides, in the assay on Bacteria, the “MIC strain 20 (E. coli J62-TEM-3 + 4 μg/mL sulbactam)” value is 2 µg/mL. Also, the “MIC strain 21 (E. coli J62-TEM-3 + 4 μg/mL tazobactam)” value in the assay with Bacteria was determined as 2 µg/mL.
Turning to `CC1(C)[C@H](NC(=O)/C(=N\O[C@H](COc2ccc(C(=N)NC(CN)CN)cc2)C(=O)O)c2csc(N)n2)C(=O)N1OS(=O)(=O)O` [Example 103, (2R)-2-({[(1Z)-1-(2-Amino-1,3-thiazol-4-yl)-2-{[(3S)-2,2-dimethyl-4-oxo-1-(sulfooxy)-azetidin-3-yl]amino}-2-oxoethylidene]amino}oxy)-3-{4-[N-(1,3-diaminopropan-2-yl)carbamimidoyl]phenoxy}propanoic acid], the MIC is no more than 0.063 µg/mL in the assay on S. aureus 133 (setting [2]); 4 µg/mL (≈ 6.08 µM) with S. pneumoniae 113; 16 µg/mL (≈ 24.3 µM) in the assay with P. aeruginosa PAO1; 32 µg/mL (≈ 48.7 µM) in the assay on C. perfringens DSM756; 2 µg/mL (≈ 3.04 µM) with E. coli ATCC25922; 32 µg/mL (≈ 48.7 µM) against A. baumannii ATCC15308. Moreover, the MIC with M. morganii 126/3048 is 2 µg/mL (≈ 3.04 µM); in the assay with H. influenzae ATCC 49247, 0.25 µg/mL (≈ 0.38 µM).

The values above are taken from patent publication US9556165B2 (priority 2012, dated 2017).
